Experimental findings from patent US20190125888A1, “TARGETED CONJUGATES AND PARTICLES AND FORMULATIONS THEREOF” (priority 2015, published 2019) are described below.

For data set [1], the system named is NCI-H524 (ATCC) human lung cancer cells. Format: cell-based. A digest of the protocol: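 NCI-H524 cells (5,000/well) exposed to conjugates for 6 hours, washed, then grown a further 66 hours; ten-point threefold dilutions from 20 μM. Proliferation by CellTiter-Glo versus vehicle; IC50 by four-parameter nonlinear regression, measured with and without octreotide competition.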

Data set [2] addresses human SSTR2 (Homo sapiens, UniProt P30874). The experiment in a line: Radioligand-receptor binding assay, [125I] somatostatin, membranes from SSTR2 expressing CHO-K1 cells. A digest of the protocol: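 CHO-K1 SSTR2 membranes incubated 4 h with 0.03 nM [125I] somatostatin and conjugates in a 10-point, 6-fold series from 10 uM. Bound radioligand measured after filtration and washing; IC50 by non-linear least-squares regression.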

Data set [3] is described as follows: Chrom LogP of maytansinoid conjugates. Format: physicochemical.
The nature of data set [4]: Ligand charge of maytansinoid conjugates. Format: physicochemical.
[5] abbreviates: read-out: H524 IC50 6 h, 6 hours treatment, further 66 hours incubation.
[6] abbreviates: read-out: H524 IC50 with 100 μM octreotide 6 h, with 100 μM octreotide competition, 6 h treatment.

Structures are written as SMILES. Like-named read-outs stand apart in the source and are kept apart here. Where a SMILES comes first, the peptide text is derived from it. Bridges are numbered along the chain shown (N, C = ends). [ ]: non-standard residue; d: D form. The star is where a group is joined. NH(CH2)2SS(DM1) = COc1cc2cc(c1Cl)N(C)C(=O)C[C@H](OC(=O)[C@H](C)N(C)C(=O)CCSSCCN*)[C@]1(C)O[C@H]1[C@H](C)[C@@H]1C[C@@](O)(NC(=O)O1)[C@H](OC)/C=C/C=C(\C)C2; Octanoyl = CCCCCCCC(=O)*

By IC50 is commonly meant the point on the concentration scale where inhibition reaches its midpoint. The term Ki denotes a measure of affinity in units of concentration, obtained from inhibition or displacement. A word on the chromatographic logP: it is a lipophilicity value derived from retention on a column.

human SSTR2, sequence (P30874 whole entry): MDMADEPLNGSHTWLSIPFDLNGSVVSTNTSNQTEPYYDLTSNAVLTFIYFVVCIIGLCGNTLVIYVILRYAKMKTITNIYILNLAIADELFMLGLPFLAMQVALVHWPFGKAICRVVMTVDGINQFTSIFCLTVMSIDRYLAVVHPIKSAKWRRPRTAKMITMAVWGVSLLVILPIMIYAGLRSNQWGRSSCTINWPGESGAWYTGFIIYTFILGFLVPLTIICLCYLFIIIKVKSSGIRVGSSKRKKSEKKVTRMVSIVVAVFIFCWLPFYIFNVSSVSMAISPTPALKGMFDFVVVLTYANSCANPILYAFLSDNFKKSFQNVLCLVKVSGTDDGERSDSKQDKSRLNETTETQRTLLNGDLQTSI

For the molecule `COc1cc2cc(c1Cl)N(C)C(=O)C[C@H](OC(=O)[C@H](C)N(C)C(=O)CCC(C)(C)SSC[C@H](NC(=O)[C@@H]1CSSC[C@H](NC(=O)[C@H](N)Cc3ccccc3)C(=O)N[C@@H](Cc3ccc(O)cc3)C(=O)N[C@H](Cc3c[nH]c4ccccc34)C(=O)N[C@@H](CCCCN)C(=O)N[C@@H]([C@@H](C)O)C(=O)N1)C(N)=O)[C@]1(C)O[C@H]1[C@H](C)[C@@H]1C[C@@](O)(NC(=O)O1)[C@H](OC)/C=C/C=C(\C)C2` [Conjugate 4], the IC50 in data set [1] (setting [5]) worked out at 78 nM; in data set [1] (setting [6]), 348 nM. The molecule further came in with an inhibitory constant (Ki) in data set [2] of 0.075 nM. The molecule further registered a chromatographic logP in data set [3] of 2.21. Further, the Ligand charge entry in data set [4] is “+2”.

With `COc1cc2cc(c1Cl)N(C)C(=O)C[C@H](OC(=O)[C@H](C)N(C)C(=O)CCSSC(C)(C)[C@H](NC(=O)[C@@H]1CSSC[C@H](NC(=O)[C@@H](Cc3ccccc3)NC(=O)NCc3ccccc3)C(=O)N[C@@H](Cc3ccc(O)cc3)C(=O)N[C@H](Cc3c[nH]c4ccccc34)C(=O)N[C@@H](CCCCN)C(=O)N[C@@H]([C@@H](C)O)C(=O)N1)C(N)=O)[C@]1(C)O[C@H]1[C@H](C)[C@@H]1C[C@@](O)(NC(=O)O1)[C@H](OC)/C=C/C=C(\C)C2` [Conjugate 7], the IC50 in data set [1] (setting [5]) turned out to be 4.7 nM; in data set [1] (setting [6]) it was 181 nM. The Ki in data set [2] worked out at 0.025 nM. Besides, the chromatographic logP in data set [3] is 2.6. Moreover, the Ligand charge entry in data set [4] is “+1”.

As to `COc1cc2cc(c1Cl)N(C)C(=O)C[C@H](OC(=O)[C@H](C)N(C)C(=O)CCSSC(C)(C)[C@H](NC(=O)[C@@H]1CSSC[C@H](NC(=O)[C@@H](Cc3ccccc3)NC(=O)Nc3ccccc3)C(=O)N[C@@H](Cc3ccc(O)cc3)C(=O)N[C@H](Cc3c[nH]c4ccccc34)C(=O)N[C@@H](CCCCN)C(=O)N[C@@H]([C@@H](C)O)C(=O)N1)C(N)=O)[C@]1(C)O[C@H]1[C@H](C)[C@@H]1C[C@@](O)(NC(=O)O1)[C@H](OC)/C=C/C=C(\C)C2` [Conjugate 11], the IC50 in data set [1] (setting [5]) came to 6.1 nM; in data set [1] (setting [6]), 232 nM. In data set [2], this molecule had an inhibitory constant (Ki) of 0.034 nM. This molecule yielded a chromatographic logP in data set [3] of 2.98. Also, the Ligand charge result in data set [4] is given as “+1”.

For `COc1cc2cc(c1Cl)N(C)C(=O)C[C@H](OC(=O)[C@H](C)N(C)C(=O)CCSSC(C)(C)[C@H](NC(=O)[C@@H]1CSSC[C@H](NC(=O)[C@@H](Cc3ccccc3)NCc3ccccc3)C(=O)N[C@@H](Cc3ccc(O)cc3)C(=O)N[C@H](Cc3c[nH]c4ccccc34)C(=O)N[C@@H](CCCCN)C(=O)N[C@@H]([C@@H](C)O)C(=O)N1)C(N)=O)[C@]1(C)O[C@H]1[C@H](C)[C@@H]1C[C@@](O)(NC(=O)O1)[C@H](OC)/C=C/C=C(\C)C2` [Conjugate 12], the IC50 in data set [1] (setting [5]) came to 19.5 nM; in data set [1] (setting [6]), 331 nM. Moreover, in data set [2], the affinity, expressed as Ki, was 0.02 nM. The chromatographic logP in data set [3] came out at 2.57. Further, the Ligand charge result in data set [4] is recorded as “+2”.

As to `CCNC(=O)N[C@H](Cc1ccccc1)C(=O)N[C@H]1CSSC[C@@H](C(=O)N[C@H](C(N)=O)C(C)(C)SSCCC(=O)N(C)[C@@H](C)C(=O)O[C@H]2CC(=O)N(C)c3cc(cc(OC)c3Cl)C/C(C)=C/C=C/[C@@H](OC)[C@@]3(O)C[C@H](OC(=O)N3)[C@@H](C)[C@@H]3O[C@@]23C)NC(=O)[C@H]([C@@H](C)O)NC(=O)[C@H](CCCCN)NC(=O)[C@@H](Cc2c[nH]c3ccccc23)NC(=O)[C@H](Cc2ccc(O)cc2)NC1=O` [Conjugate 13], the IC50 in data set [1] (setting [5]) was determined as 6.5 nM; in data set [1] (setting [6]), 340 nM. Moreover, the inhibition constant (Ki) in data set [2] amounted to 0.018 nM. This molecule came in with a chromatographic logP in data set [3] of 2.67. Further, in data set [4], the Ligand charge result is “+1”.

Take `COc1cc2cc(c1Cl)N(C)C(=O)C[C@H](OC(=O)[C@H](C)N(C)C(=O)CCSSC(C)(C)[C@H](NC(=O)[C@@H]1CSSC[C@H](NC(=O)[C@@H](Cc3ccccc3)NS(=O)(=O)Cc3ccc(C(F)(F)F)cc3)C(=O)N[C@@H](Cc3ccc(O)cc3)C(=O)N[C@H](Cc3c[nH]c4ccccc34)C(=O)N[C@@H](CCCCN)C(=O)N[C@@H]([C@@H](C)O)C(=O)N1)C(N)=O)[C@]1(C)O[C@H]1[C@H](C)[C@@H]1C[C@@](O)(NC(=O)O1)[C@H](OC)/C=C/C=C(\C)C2` [Conjugate 14]: the half-maximal inhibitory concentration (IC50) in data set [1] (setting [5]) is 14 nM; in data set [1] (setting [6]), 331 nM. In data set [2], this molecule returned a Ki of 0.041 nM. Moreover, the chromatographic logP in data set [3] amounted to 3.23. For the same molecule, the Ligand charge result in data set [4] is “+1”.

Consider `CCCCCCCC(=O)N[C@H](Cc1ccccc1)C(=O)N[C@H]1CSSC[C@@H](C(=O)NCCSSCCC(=O)N(C)[C@@H](C)C(=O)O[C@H]2CC(=O)N(C)c3cc(cc(OC)c3Cl)C/C(C)=C/C=C/[C@@H](OC)[C@@]3(O)C[C@H](OC(=O)N3)[C@@H](C)[C@@H]3O[C@@]23C)NC(=O)[C@H]([C@@H](C)O)NC(=O)[C@H](CCCCN)NC(=O)[C@@H](Cc2c[nH]c3ccccc23)NC(=O)[C@H](Cc2ccc(O)cc2)NC1=O` [Conjugate 21] (Octanoyl-[dF]CY[dW]KTC-{NH(CH2)2SS(DM1)}; disulfide 2-7), for which the Ki in data set [2] came to 1.29 nM. Further, the chromatographic logP in data set [3] was 3.48. In addition, in data set [4], the Ligand charge result was “+1”.

As to `COc1cc2cc(c1Cl)N(C)C(=O)C[C@H](OC(=O)[C@H](C)N(C)C(=O)CCSSC[C@H](NC(=O)[C@@H]1CSSC[C@H](NC(=O)[C@@H](Cc3ccccc3)NC(=O)NC3CCCCC3)C(=O)N[C@@H](Cc3ccc(O)cc3)C(=O)N[C@H](Cc3c[nH]c4ccccc34)C(=O)N[C@@H](CCCCN)C(=O)N[C@@H]([C@@H](C)O)C(=O)N1)C(N)=O)[C@]1(C)O[C@H]1[C@H](C)[C@@H]1C[C@@](O)(NC(=O)O1)[C@H](OC)/C=C/C=C(\C)C2` [Conjugate 25], the concentration for half-maximal inhibition (IC50) is 32 nM in data set [1] (setting [5]) and 123 nM in data set [1] (setting [6]). Further, the Ki in data set [2] stood at 0.11 nM. The same molecule came in with a chromatographic logP in data set [3] of 2.94. Moreover, the Ligand charge entry in data set [4] was “+1”.

Consider `COc1cc2cc(c1Cl)N(C)C(=O)C[C@H](OC(=O)[C@H](C)N(C)C(=O)CCSSC[C@H](NC(=O)[C@@H]1CSSC[C@H](NC(=O)[C@@H](Cc3ccccc3)NC(=O)NCc3ccccc3)C(=O)N[C@@H](Cc3ccc(O)cc3)C(=O)N[C@H](Cc3c[nH]c4ccccc34)C(=O)N[C@@H](CCCCN)C(=O)N[C@@H]([C@@H](C)O)C(=O)N1)C(N)=O)[C@]1(C)O[C@H]1[C@H](C)[C@@H]1C[C@@](O)(NC(=O)O1)[C@H](OC)/C=C/C=C(\C)C2` [Conjugate 28], for which the IC50 is 6.1 nM in data set [1] (setting [5]) and 31 nM in data set [1] (setting [6]). In data set [2], this molecule returned an inhibitory constant (Ki) of 0.057 nM. In addition, the chromatographic logP in data set [3] turned out to be 2.51. Moreover, the Ligand charge result in data set [4] is reported as “+1”.

Turning to `CCNC(=O)N[C@H](Cc1ccccc1)C(=O)N[C@H]1CSSC[C@@H](C(=O)N[C@@H](CSSCCC(=O)N(C)[C@@H](C)C(=O)O[C@H]2CC(=O)N(C)c3cc(cc(OC)c3Cl)C/C(C)=C/C=C/[C@@H](OC)[C@@]3(O)C[C@H](OC(=O)N3)[C@@H](C)[C@@H]3O[C@@]23C)C(=O)NCC)NC(=O)[C@H]([C@@H](C)O)NC(=O)[C@H](CCCCN)NC(=O)[C@@H](Cc2c[nH]c3ccccc23)NC(=O)[C@H](Cc2ccc(O)cc2)NC1=O` [Conjugate 30], the IC50 in data set [1] (setting [5]) is 2.4 nM; in data set [1] (setting [6]), 27 nM. The molecule also had a Ki in data set [2] of 0.071 nM. For the same molecule, in data set [3], the chromatographic logP was 2.79. Also, the Ligand charge entry in data set [4] is reported as “+1”.

As for `COc1cc2cc(c1Cl)N(C)C(=O)C[C@H](OC(=O)[C@H](C)N(C)C(=O)CCSSC[C@H](NC(=O)[C@@H]1CSSC[C@H](NC(=O)[C@@H](Cc3ccccc3)NS(C)(=O)=O)C(=O)N[C@@H](Cc3ccc(O)cc3)C(=O)N[C@H](Cc3c[nH]c4ccccc34)C(=O)N[C@@H](CCCCN)C(=O)N[C@@H]([C@@H](C)O)C(=O)N1)C(N)=O)[C@]1(C)O[C@H]1[C@H](C)[C@@H]1C[C@@](O)(NC(=O)O1)[C@H](OC)/C=C/C=C(\C)C2` [Conjugate 34], the IC50 in data set [1] (setting [5]) turned out to be 13 nM; in data set [1] (setting [6]) it was 83 nM. Further, in data set [2], the affinity corresponds to a Ki of 0.18 nM. This molecule also came in with a chromatographic logP in data set [3] of 2.57. The Ligand charge result in data set [4] is listed as “+1”.

As to `COc1cc2cc(c1Cl)N(C)C(=O)C[C@H](OC(=O)[C@H](C)N(C)C(=O)CCSSC[C@H](NC(=O)[C@@H]1CSSC[C@H](NC(=O)[C@@H](Cc3ccccc3)NC(=O)NCc3ccc(C(F)(F)F)cc3)C(=O)N[C@@H](Cc3ccc(O)cc3)C(=O)N[C@H](Cc3c[nH]c4ccccc34)C(=O)N[C@@H](CCCCN)C(=O)N[C@@H]([C@@H](C)O)C(=O)N1)C(N)=O)[C@]1(C)O[C@H]1[C@H](C)[C@@H]1C[C@@](O)(NC(=O)O1)[C@H](OC)/C=C/C=C(\C)C2` [Conjugate 37], the IC50 worked out at 3.7 nM in data set [1] (setting [5]) and 93 nM in data set [1] (setting [6]). In data set [2], this molecule registered a Ki of 0.16 nM. Besides, the chromatographic logP in data set [3] was found to be 3.07. Besides, the Ligand charge result in data set [4] is on record as “+1”.

With `COc1cc2cc(c1Cl)N(C)C(=O)C[C@H](OC(=O)[C@H](C)N(C)C(=O)CCSSC[C@H](NC(=O)[C@@H]1CSSC[C@H](NC(=O)[C@@H](Cc3ccccc3)NC(=O)NCCC(F)(F)C(F)(F)C(F)(F)C(F)(F)C(F)(F)C(F)(F)C(F)(F)C(F)(F)F)C(=O)N[C@@H](Cc3ccc(O)cc3)C(=O)N[C@H](Cc3c[nH]c4ccccc34)C(=O)N[C@@H](CCCCN)C(=O)N[C@@H]([C@@H](C)O)C(=O)N1)C(N)=O)[C@]1(C)O[C@H]1[C@H](C)[C@@H]1C[C@@](O)(NC(=O)O1)[C@H](OC)/C=C/C=C(\C)C2` [Conjugate 40], in data set [2], the Ki worked out at 3.51 nM. Besides, in data set [3], the chromatographic logP turned out to be 4. Further, the Ligand charge entry in data set [4] is given as “+1”.
